The record followed here is patent publication US20120251628A1, “COMPOSITIONS AND METHODS FOR TREATMENT OF CANCER” (priority 2011, published 2012).

The test system of assay [1] is CT26 colon carcinoma cells. In words: Anti-tumor effect in mice bearing subcutaneous CT26 tumors, alone or with irinotecan. The assay is classed as in vivo. How it is done: Female BALBc mice bearing subcutaneous CT26 colon carcinoma cells were injected intraperitoneally with sodium meta arsenite (10/mg/kg body weight) or irinotecan alone, or co-administered weekly for four weeks.

The next assay deals with microtubules. Description: Immunohistochemistry of microtubules in HUVECs (confocal microscopy). The assay is classed as cell-based, Human. To be noted: 1 uM, 5 uM and 10 uM, 24 and 48 hours, concentration dependent. How it is done: HUVECs were cultured in a confocal dish (made by SPL, Korea) with F-12K (Sigma) medium containing 10% FBS and endothelial cell growth supplement (ECGS, E2759, Sigma). After cultivation for 24 hours, the cells were treated with sodium meta arsenite at a concentration of 1 uM, 5 uM and 10 uM. At 24 hours and 48 hours after treatment, the cells were fixed with 3.7% paraformaldehyde at room temperature for 10 minutes. After washing with phosphate buffered saline (PBS) solution three times, the cells were treated with 0.15% Triton X-100 for 15 minutes and then washed three times with PBS solution. After blocking with 2% bovine serum albumin (BSA, Sigma) at room temperature for 60 minutes, the cells were washed three times with PBS solution. Monoclonal antibody against α-tubulin (SantaCruze, sc-32293) was reacted with the cells at room temperature for one hour and then the cells were washed three times with the PBS solution. The cells were then reacted with rat anti-mouse IgG1 secondary antibody (Pharmigen, #A85-1) conjugated to FITC. After being washed three times with PBS solution, they were analyzed using a confocal laser scanning microscope (OLYMPUS FV500,1×81).

For another assay, the system named is β-tubulin mRNA. Description: RT-PCR of tubulin mRNA from HUVECs. The assay is classed as cell-based, Human. Particulars: 5 uM, 10 uM and 20 uM, 24 hours and 48 hours after treatment. How it is done:
(§1) To determine whether the level of tubulin gene expression is responsible for the change in amount of tubulin protein observed in Example 5, RT-PCR was performed. HUVECs (obtained from ATCC) were cultivated in F25 culture flasks containing F-12K (Sigma) medium supplemented with 10% FBS and endothelial cell growth supplement (ECGS, E2759, Sigma). After cultivation for 24 hours, the cells were treated with sodium meta arsenite at concentrations of 5 uM, 10 uM and 20 uM. […] Total RNA was extracted using Trizol (Invitrogen, USA) and alcohol precipitation. 1 ug of total RNA was used for reverse transcriptase and dT was used for cDNA synthesis. The primer for synthesized cDNA and α-tubulin (sense: 5′-ATTGTGCCTTCATGGTAGAC-3′ (SEQ ID NO. 1), antisense: 5′-TTCTGTCAGGTCAACATTCA-3′) (SEQ ID NO. 2), the primer for β-tubulin (sense: 5′-AACGACCTCGTCTCTGAGTA-3′ (SEQ ID NO. 3), antisense: 5′-AATTCTGAGGGAGAGGAAAG-3′) (SEQ ID NO. 4) and GAPDH primer set (sense: 5′-ACCACTTTGTCAAGCTCATT-3′ (SEQ ID NO. 5), antisense: 5′-AGTGAGGGTCTCTCTCTTCC-3′) (SEQ ID No. 6) were used for denaturation at 95° C. for four minutes. After the reactions at 23 cycles at 95° C. for 30 seconds, at 52° C. for 30 seconds and at 72° C. for 40 seconds, PCR was performed at 72° C. for four minutes. The PCR product was confirmed by 1.5% agarose gel electrophoresis.

For the next assay, the system named is α-tubulin mRNA. Description: RT-PCR of tubulin mRNA from HUVECs. The class given is cell-based, Human. Particulars: 5 uM, 10 uM and 20 uM, 24 hours and 48 hours after treatment. Here is the method:
as §1

A further assay deals with tumors. Description: Cell and animal experiments with KML001 injected after tumors were generated. The assay is classed as in vivo.
The mark [2] stands for this setting: injected after tumors were generated.

In the case of `O=[As][O-].[Na+]` [sodium meta arsenite], in assay [1] (sodium meta arsenite administered 24 hours or 72 hours after irinotecan, weekly for four weeks), the tumor growth delay entry is “Significant tumor growth delay”. Besides, in assay [1] (sodium meta arsenite alone, 10 mg/kg intraperitoneal), the tumor regrowth result was “regrowth was observed from the periphery after two days”. Further, the “necrosis of the tumor” value in assay [1] (sodium meta arsenite alone, 10 mg/kg intraperitoneal, by 24 hours after treatment) is listed as “Massive necrosis in the central part of the tumor”. The “total amount of microtubules” value in the assay on microtubules was “reduction in the total amount of microtubules”. The “β-tubulin mRNA level” value in the assay with β-tubulin mRNA is reported as “no change”. In addition, the “α-tubulin mRNA levels” value in the assay on α-tubulin mRNA is listed as “no change”. The apoptosis result in the assay with tumors (cell experiments and animal experiments) is given as “occurred dose-dependently”. Further, in the assay on tumors (setting [2]), the “necrotic phenomena in tumor tissues” value is listed as “occurred” and the “reduction in tumor volume” value is on record as “no effect”.
